The values below are quoted from earlier work in patent publication US20250367112A1, “DRUG DELIVERY COMPOSITION FOR PROMOTING TISSUE REGENERATION AND KIT FOR DRUG DELIVERY COMPRISING SAME” (T&R BIOFAB CO., LTD., priority 2023, published 2025).

Structures can show the parent of a compound that is named as a salt. Where two headings read alike, the source gives them in different places.

Regarding `CCCN1CCCC[C@H]1C(=O)Nc1c(C)cccc1C` [Ropivacaine HCl], the in vivo half-life is, setting by setting: (epidural injection) 4.2 ± 1 h; (intravenous injection) 1.8 ± 0.7 h.
